{"source": "paper PMC4191920", "about": "(Journal of molecular biology, 2014)", "origin": "cited, not measured here", "test_system": "fibril formation", "conditions": "at pH 7.4", "data": [{"substance": "[Nα-methyl-β-Ala26]Aβ42", "values": [{"measurement": "effect on fibril formation", "value": "inhibit fibril formation"}]}]}
